# Measured values published in US20230310394A1 (THE SECOND XIANGYA HOSPITAL OF CENTRAL SOUTH UNIVERSITY, priority 2020, published 2023).
# Values joined by “and” are separate entries in the source; they are usually repeats but may differ in a detail not shown here. Identical values can stand only once.
# Assays:
# Format in all cases: cell-based, Human
# [1] = system: HEL^RE (HEL-resistant, ruxolitinib-resistant) cells; assay: Anti-proliferative test, CellTiter-Lumi luminescence method, HEL-resistant model; conditions: for IC50: HEL^RE cells
# Method: (§1) HEL (Human erythroleukemia cell line) and drug-resistant HEL cells were cultured in RPMI medium (Gibco) containing 20% heat-inactivated fetal bovine serum (Gibco) and 1% penicillin/streptomycin (Gibco).
# (§2) HEL^PE model, namely HEL-persistent model, was constructed by treating HEL blast cells with a high concentration of ruxolitinib that exceeded the IC50 concentration of blast cells by more than 100 times, wherein the concentration of ruxolitinib used herein was 2.0 μM. The culture medium of the cells was changed every two days, the cells that cannot tolerate the high concentration of ruxolitinib died quickly, while the proliferated cells were DTP (drug-tolerant-persisters), and this cell subset was difficult to be killed by antitumor drugs. Stable drug-resistant cells were obtained after 4-6 weeks. Another drug resistance model is HEL^RE, namely the HEL-resistant model, which was constructed by treating blast cells with ruxolitinib from a starting concentration lower than the IC50 concentration of blast cells, slowly increasing to a high concentration to keep the cells from being killed. The starting concentration used herein was 0.1 μM, the drug was added as soon as the cells proliferated, the dosing gradient was 1.25-fold increments, and the final concentration was 2.0 μM. Stable drug-resistant cells were obtained after 4-6 weeks.
# (§3) To test the anti-proliferative effect of the inhibitors, the above cell lines were cultured at a 3000 cells/200 μL per well, added with increasing concentrations of the inhibitors (concentration gradient: 0, 1, 2.5, 5, 10, 20 μM), then supplemented with DMSO to an equal volume. 4 parallel replicate groups and 3 blank wells (culture medium wells without cells) were set. After 72 hours, the cell proliferation was detected by a multi-plate reader using CellTiter-Lumi™ luminescence method (Beyotime), and the IC50 was calculated by Graph Pad prism.
# (§4) The calculation formula of cell proliferation rate: cell proliferation rate=(Luminescence value of drug-treated group—average Luminescence value of blank wells)/(Luminescence value of DMSO control group—average Luminescence value of blank wells)×100%.
# The method to evaluate whether the model is successfully constructed is to compare the IC50 of drug-resistant cells and naive cells, the obtained ratio was the drug-resistance index, and if the ratio was greater than 3, then the model was successfully constructed.
# HEL cells [2] = assay: Apoptosis detection by flow cytometry after Annexin V-PI staining, HEL cells; conditions: 24 hours
# Source text: (§5) Three parallel replicate groups were set up, and the apoptosis of cells was detected by flow cytometry after Annexin V-PI staining.
# (§6) The calculation formula of the apoptosis rate: apoptosis rate=ratio of early apoptotic cells (Annexin V+/PI−)+ratio of late apoptotic cells and necrotic cells (Annexin V+/PI+).
# [3] = system: HEL^RE (HEL-resistant, ruxolitinib-resistant) cells; assay: Apoptosis detection by flow cytometry after Annexin V-PI staining, HEL-resistant model; conditions: 24 hours
# Source text: as §5, §6
# HEL cells [4] = assay: Anti-proliferative test, CellTiter-Lumi luminescence method, HEL cells; conditions: 72 hours; for average proliferation rate: HEL cells, relative to DMSO control
# Method: as §1, §3, §4
# [5] = system: HEL^PE (HEL-persistent, ruxolitinib-resistant) cells; assay: Anti-proliferative test, CellTiter-Lumi luminescence method, HEL-persistent model; conditions: for IC50: Homo sapiens, HEL^PE cells, 72 hours
# Method: as §1, §2
# as §3, with “4 parallel replicate groups and 3 blank wells (culture medium wells without cells) were set.” left out
# The calculation formula of cell proliferation rate: cell proliferation rate=(Luminescence value of drug-treated group—average Luminescence value of blank wells)/(Luminescence value of DMSO control group—average Luminescence value of blank wells)×100%. […]
# [6] = system: HEL^PE (HEL-persistent, ruxolitinib-resistant) cells; assay: Apoptosis detection by flow cytometry after Annexin V-PI staining, HEL-persistent model; conditions: 24 hours
# Source text: as §5, §6
Structure (SMILES),"IC50 ([1]; Homo sapiens, 72 h) [µM]",average apoptosis rate (HEL cells [2]; 2.5 μM),average apoptosis rate (HEL cells [2]; 5 μM),average apoptosis rate (HEL cells [2]; 10 μM),average apoptosis rate ([3]; 2.5 μM),average apoptosis rate ([3]; 5 μM),average apoptosis rate ([3]; 10 μM),average proliferation rate (HEL cells [4]; 1 μM),average proliferation rate (HEL cells [4]; 2.5 μM),average proliferation rate (HEL cells [4]; 5 μM),average proliferation rate (HEL cells [4]; 10 μM),average proliferation rate (HEL cells [4]; 20 μM),IC50 [5] [µM],average apoptosis rate ([6]; 2.5 μM) [%],average apoptosis rate ([6]; 5 μM) [%],average apoptosis rate ([6]; 10 μM) [%],IC50 ([1]; 72 hours) [µM],drug-resistance index ([1]; ratio of IC50 of HEL^RE cells to IC50 of naive HEL cells),drug-resistance index ([5]; ratio of IC50 of HEL^PE cells to IC50 of naive HEL cells),"IC50 (HEL cells [4]; Homo sapiens, HEL naive cells, mean (95% confidence interval)) [nM]"
CNC(=O)c1cc(Oc2ccc(NC(=O)Nc3ccc(Cl)c(C(F)(F)F)c3)c(F)c2)ccn1 [regorafenib],0.514,4.31%,7.76%,10.6%,9.50%,12.9%,14.7%,84.7%,57.7%,32.1%,17.7%,1.15%,–,–,–,–,–,–,–,–
CNC(=O)c1cc(Oc2ccc(NC(=O)Nc3ccc(Cl)c(C(F)(F)F)c3)cc2)ccn1 [sorafenib],3.56,5.82%,10.9%,16.1%,1.22%,5.58%,18.6%,80.3%,72.1%,40.0%,–,0.828%,2.8,2.16,11.1,18.0,–,–,–,–
"N#CC[C@H](C1CCCC1)n1cc(-c2ncnc3[nH]ccc23)cn1 [ruxolitinib, Ruxolitinib]",–,4.65% and 2.05%,5.07% and 2.14%,4.59% and 2.16%,1.16% and 3.75%,1.35% and 3.70%,1.05% and 4.34%,41.4% and 50.5%,40.6% and 48.4%,42.8% and 50.2%,40.8% and 48.4%,22.9% and 28.5%,25.5,0.920,1.11,0.740,24.9,498,510,50
